The source made the active and inactive calls. The calls are words filed in the database; no cut-off is given here.
Key:
Format in all cases: functional
SW1573 [1] = assay: Growth inhibition of human SW1573 cells after 48 hrs by sulforhodamine B assay; conditions: SW1573, 48 h
HBL-100 = assay: Growth inhibition of human HBL100 cells after 48 hrs by sulforhodamine B assay; conditions: HBL-100, 48 h
T47D [2] = assay: Growth inhibition of human T47D cells after 48 hrs by sulforhodamine B assay
WiDr [3] = assay: Growth inhibition of human WiDr cells after 48 hrs by sulforhodamine B assay
HeLa [4] = assay: Growth inhibition of human HeLa cells after 48 hrs by sulforhodamine B assay
A2780 = assay: Growth inhibition of human A2780 cells after 48 hrs by sulforhodamine B assay; conditions: A2780, 48 h
WiDr [5] = assay: Cell cycle arrest in human WiDr cells assessed as minor accumulation at S phase at 5 to 20 uM after 24 hrs by propidium iodide staining-based FACS analysis
HeLa [6] = assay: Cell cycle arrest in human HeLa cells assessed as minor accumulation at S phase at 5 to 20 uM after 24 hrs by propidium iodide staining-based FACS analysis
SW1573 [7] = assay: Cell cycle arrest in human SW1573 cells assessed as minor accumulation at G2/M phase at 5 to 20 uM after 24 hrs by propidium iodide staining-based FACS analysis
T47D [8] = assay: Cell cycle arrest in human T47D cells assessed as minor accumulation at S phase at 5 to 20 uM after 24 hrs by propidium iodide staining-based FACS analysis
T47D [9] = assay: Cell cycle arrest in human T47D cells assessed as minor accumulation at G2/M phase at 5 to 20 uM after 24 hrs by propidium iodide staining-based FACS analysis
SW1573 [10] = assay: Cell cycle arrest in human SW1573 cells assessed as minor accumulation at S phase at 5 to 20 uM after 24 hrs by propidium iodide staining-based FACS analysis
WiDr [11] = assay: Cell cycle arrest in human WiDr cells assessed as minor accumulation at G2/M phase at 5 to 20 uM after 24 hrs by propidium iodide staining-based FACS analysis
HeLa [12] = assay: Cell cycle arrest in human HeLa cells assessed as minor accumulation at G2/M phase at 5 to 20 uM after 24 hrs by propidium iodide staining-based FACS analysis
HeLa [13] = assay: Cell cycle arrest in human HeLa cells assessed as decrease in accumulation at S phase at 3 uM after 24 hrs by propidium iodide staining-based FACS analysis
T47D [14] = assay: Cell cycle arrest in human T47D cells assessed as increase in accumulation at sub G0 phase at 3 to 6 uM treated for 24 hrs measured after 24 hrs of drug washout by propidium iodide staining-based FACS analysis
HeLa [15] = assay: Cell cycle arrest in human HeLa cells assessed as accumulation at G2/M phase at 6 uM after 24 hrs by propidium iodide staining-based FACS analysis
T47D [16] = assay: Cell cycle arrest in human T47D cells assessed as decrease in accumulation at S phase at 6 uM after 24 hrs by propidium iodide staining-based FACS analysis
HeLa [17] = assay: Cell cycle arrest in human HeLa cells assessed as decrease in accumulation at G0/G1 phase at 6 uM after 24 hrs by propidium iodide staining-based FACS analysis
SW1573 [18] = assay: Cell cycle arrest in human SW1573 cells assessed as accumulation at S phase at 6 uM after 24 hrs by propidium iodide staining-based FACS analysis
SW1573 [19] = assay: Cell cycle arrest in human SW1573 cells assessed as accumulation at G2/M phase at 6 uM after 24 hrs by propidium iodide staining-based FACS analysis
SW1573 [20] = assay: Cell cycle arrest in human SW1573 cells assessed as decrease in accumulation at S phase at 3 uM after 24 hrs by propidium iodide staining-based FACS analysis
WiDr [21] = assay: Cell cycle arrest in human WiDr cells assessed as accumulation at G2/M phase at 6 uM after 24 hrs by propidium iodide staining-based FACS analysis
HeLa [22] = assay: Cell cycle arrest in human HeLa cells assessed as accumulation at S phase at 6 uM after 24 hrs by propidium iodide staining-based FACS analysis
T47D [23] = assay: Cell cycle arrest in human T47D cells assessed as accumulation at G2/M phase at 6 uM after 24 hrs by propidium iodide staining-based FACS analysis
WiDr [24] = assay: Cell cycle arrest in human WiDr cells assessed as decrease in accumulation at S phase at 6 uM after 24 hrs by propidium iodide staining-based FACS analysis
SW1573 [25] = assay: Cell cycle arrest in human SW1573 cells assessed as decrease in accumulation at G0/G1 phase at 6 uM after 24 hrs by propidium iodide staining-based FACS analysis
HeLa [26] = assay: Cell cycle arrest in human HeLa cells assessed as accumulation at G2/M phase at 3 uM after 24 hrs by propidium iodide staining-based FACS analysis
WiDr [27] = assay: Cell cycle arrest in human WiDr cells assessed as increase in accumulation at sub G0 phase at 3 to 6 uM treated for 24 hrs measured after 24 hrs of drug washout by propidium iodide staining-based FACS analysis
SW1573 [28] = assay: Cell cycle arrest in human SW1573 cells assessed as accumulation at G2/M phase at 3 uM after 24 hrs by propidium iodide staining-based FACS analysis

| pGI50 (SW1573 [1]) | GI50 (SW1573 [1]; read-out: GI50) [µM] | pGI50 (T47D [2]) | GI50 (T47D [2]; read-out: GI50) [µM] | pGI50 (HeLa [4]) | GI50 (HeLa [4]; read-out: GI50) [µM] | pGI50 (A2780) | GI50 (A2780; read-out: GI50) [µM] | GI50 (T47D [2]; read-out: pGI50 (converted)) [µM] | SMILES | pGI50 (HBL-100) | GI50 (HBL-100; read-out: GI50) [µM] | pGI50 (WiDr [3]) | GI50 (WiDr [3]; read-out: GI50) [µM] | further results |
| --- | --- | --- | --- | --- | --- | --- | --- | --- | --- | --- | --- | --- | --- | --- |
| 4 | > 100 | 4 | > 100 | 4 | > 100 | 4 | > 100 |  | C=C(C(=O)O)[C@@H]1CC[C@@]2(C)CCC[C@@](C)(O)[C@@H]2C1 [ILICIC ACID] | 4 | > 100 | 4 | > 100 |  |
| 4 | > 100 | 4 | > 100 | 4 | > 100 | 4 | > 100 |  | C=C(CO)[C@@H]1CC[C@@]2(C)CCC[C@@](C)(O)[C@@H]2C1 [ILICIC ALCOHOL] | 4 | > 100 | 4 | > 100 |  |
| 5.72 | 2 |  | 6.5 |  | 16 |  | 1.8 | 5.19 | C=C(C=O)[C@@H]1CC[C@@]2(C)CCC[C@@](C)(O)[C@@H]2C1 [ILICIC ALDEHYDE] |  | 2.8 |  | 12 | Activity (WiDr [5]): Active; GI50 (HBL-100; read-out: pGI50 (converted)): 5.56 µM; Activity (HeLa [6]): Active; Activity (SW1573 [7]): Active; GI50 (WiDr [3]; read-out: pGI50 (converted)): 4.92 µM; Activity (T47D [8]): Active; Activity (T47D [9]): Active; GI50 (HeLa [4]; read-out: pGI50 (converted)): 4.8 µM; Activity (SW1573 [10]): Active; Activity (WiDr [11]): Active; Activity (HeLa [12]): Active; GI50 (A2780; read-out: pGI50 (converted)): 5.58 µM |
|  | 3.8 |  | 2.4 | 5.35 | 4.5 | 5.75 | 1.9 | 5.62 | C=C(C(=O)OC)[C@@H]1CCC2=CC(=O)C[C@H](C)[C@@]2(C)C1 [TESSARIC ACID METHYL ESTER] | 5.63 | 2.4 | 5.74 | 2 | GI50 (SW1573 [1]; read-out: pGI50 (converted)): 5.44 µM; Activity (HeLa [13]): Active; Activity (T47D [14]): Active; Activity (HeLa [15]): Active; Activity (T47D [16]): Active; Activity (HeLa [17]): Active; Activity (SW1573 [18]): Active; Activity (SW1573 [19]): Active; Activity (SW1573 [20]): Active; Activity (WiDr [21]): Active; Activity (HeLa [22]): Active; Activity (T47D [23]): Active; Activity (WiDr [24]): Active; Activity (SW1573 [25]): Active; Activity (HeLa [26]): Active; Activity (WiDr [27]): Active; Activity (SW1573 [28]): Active |
| 4 | > 100 | 4 | > 100 | 4 | > 100 | 4 | > 100 |  | C=C(C(=O)O)[C@@H]1CCC2=CC(=O)C[C@H](C)[C@@]2(C)C1 [TESSARIC ACID] | 4 | > 100 | 4 | > 100 |  |
| 4 | > 100 | 4 | > 100 | 4 | > 100 | 4 | > 100 |  | C=C(C(=O)OC)[C@@H]1CC[C@@]2(C)CCC[C@@](C)(O)[C@@H]2C1 [VACHANIC ACID METHYLESTER] | 4.13 | 74 | 4 | > 100 |  |

Reference: ChEMBL document CHEMBL1152527, “Tessaric acid derivatives induce G2/M cell cycle arrest in human solid tumor cell lines” (2009)
